Our source for the 3 h FOB score values is the OligoGym collection.

HELM strings list units from the 5' end as sugar, base in round brackets, then linkage (d deoxyribose, r ribose, m 2'-O-methyl, p phosphodiester). Strings are as the collection lists them; they lack the last nucleoside at the 3' end of the tested compound. [moe] = 2'-O-(2-methoxyethyl) (MOE); [sp] = phosphorothioate linkage; [m5C] = 5-methylcytosine

In the data set the target is PRNP. Description: mouse, dose not given. The settings on record: ASO.

For the substance “RNA1{[moe](G)[sp].[moe](T)p.[moe](T)p.[moe]([m5C])p.[moe](T)[sp].d(T)[sp].d(T)[sp].d(T)[sp].d([m5C])[sp].d(T)[sp].d(T)[sp].d(T)[sp].d(G)[sp].d([m5C])[sp].d(A)[sp].[moe]([m5C])p.[moe](A)p.[moe]([m5C])[sp].[moe](T)}$$$$ (last 3' nucleoside missing)”, the 3 h FOB score was found to be 6.25 score 0-7.
The result for “RNA1{[moe]([m5C])[sp].[moe](G)p.[moe](T)p.d([m5C])[sp].d([m5C])[sp].d(A)[sp].d(T)[sp].d(T)[sp].d(T)[sp].d(T)[sp].d([m5C])[sp].d(T)[sp].d(G)[sp].[moe](T)p.[moe](G)p.[moe]([m5C])p.[moe](T)p.[moe](T)[sp].[moe](T)}$$$$ (last 3' nucleoside missing)” reads 0 score 0-7; that for “RNA1{[moe](G)[sp].[moe](T)p.[moe](G)p.[moe](T)p.[moe](T)[sp].d(G)[sp].d(T)[sp].d(G)[sp].d(A)[sp].d([m5C])[sp].d(A)[sp].d(A)[sp].d(T)[sp].d(A)[sp].d(T)[sp].[moe](T)p.[moe](T)p.[moe](A)[sp].[moe]([m5C])}$$$$ (last 3' nucleoside missing)”, 1 score 0-7.
As for “RNA1{[moe](G)[sp].[moe](T)p.[moe](G)p.[moe](T)p.[moe](T)[sp].d([m5C])[sp].d([m5C])[sp].d(A)[sp].d(T)[sp].d([m5C])[sp].d([m5C])[sp].d(T)[sp].d([m5C])[sp].d([m5C])[sp].d(A)[sp].[moe](G)p.[moe](G)p.[moe]([m5C])[sp].[moe](T)}$$$$ (last 3' nucleoside missing)”, the figure is 1 score 0-7; as for “RNA1{[moe]([m5C])[sp].[moe](T)p.[moe](A)p.[moe](T)p.d(G)[sp].d(T)[sp].d(T)[sp].d(T)[sp].d(T)[sp].d([m5C])[sp].d([m5C])[sp].d(A)[sp].d(G)[sp].d(T)[sp].[moe](G)p.[moe]([m5C])p.[moe]([m5C])p.[moe]([m5C])[sp].[moe](A)}$$$$ (last 3' nucleoside missing)”, 1.25 score 0-7.
Substance “RNA1{[moe](T)[sp].[moe](G)p.[moe](G)p.[moe](A)p.[moe](A)[sp].d(G)[sp].d(A)[sp].d([m5C])[sp].d(T)[sp].d(T)[sp].d(G)[sp].d(T)[sp].d(G)[sp].d(T)[sp].d(T)[sp].[moe](A)p.[moe](G)p.[moe](A)[sp].[moe](T)}$$$$ (last 3' nucleoside missing)” gave a 3 h FOB score of 6.5 score 0-7.
As for “RNA1{[moe](A)[sp].[moe]([m5C])p.[moe](T)p.[moe](T)p.[moe](G)[sp].d(T)[sp].d([m5C])[sp].d(A)[sp].d(G)[sp].d(T)[sp].d(T)[sp].d(T)[sp].d(T)[sp].d(T)[sp].d([m5C])[sp].[moe]([m5C])p.[moe]([m5C])p.[moe]([m5C])[sp].[moe](A)}$$$$ (last 3' nucleoside missing)”, the figure is 1 score 0-7.
As for “RNA1{[moe](G)[sp].[moe]([m5C])p.[moe](T)p.[moe](T)p.[moe](A)p.[moe]([m5C])p.d(T)[sp].d([m5C])[sp].d(G)[sp].d(G)[sp].d([m5C])[sp].d(T)[sp].d(T)[sp].d(G)[sp].d(T)[sp].d(T)[sp].[moe]([m5C])p.[moe]([m5C])[sp].[moe](A)}$$$$ (last 3' nucleoside missing)”, the figure is 0.75 score 0-7; as for “RNA1{[moe](A)[sp].[moe](T)p.[moe](T)p.[moe](T)p.[moe](A)[sp].d([m5C])[sp].d(T)[sp].d([m5C])[sp].d(T)[sp].d(T)[sp].d(G)[sp].d(T)[sp].d(T)[sp].d(G)[sp].d(A)[sp].[moe](A)p.[moe]([m5C])p.[moe](A)[sp].[moe](G)}$$$$ (last 3' nucleoside missing)”, 3.75 score 0-7.
The result for “RNA1{[moe]([m5C])[sp].[moe](T)p.[moe]([m5C])p.[moe](T)p.[moe](A)p.d(T)[sp].d(G)[sp].d(T)[sp].d(T)[sp].d(T)[sp].d(T)[sp].d([m5C])[sp].d([m5C])[sp].d(A)[sp].[moe](G)p.[moe](T)p.[moe](G)[sp].[moe]([m5C])}$$$$ (last 3' nucleoside missing)” reads 0.25 score 0-7.
Substance “RNA1{[moe](T)[sp].[moe]([m5C])p.[moe](T)p.[moe](A)p.[moe](T)p.d(G)[sp].d(T)[sp].d(T)[sp].d(T)[sp].d(T)[sp].d([m5C])[sp].d([m5C])[sp].d(A)[sp].d(G)[sp].[moe](T)[sp].[moe](G)p.[moe]([m5C])p.[moe]([m5C])}$$$$ (last 3' nucleoside missing)” registered a 3 h FOB score of 0 score 0-7.
The result for “RNA1{[moe](T)[sp].[moe](G)p.[moe](T)p.[moe]([m5C])p.[moe](A)p.d(T)[sp].d(A)[sp].d(A)[sp].d(T)[sp].d(T)[sp].d(T)[sp].d(T)[sp].d([m5C])[sp].d(T)[sp].[moe](T)p.[moe](A)p.[moe](G)[sp].[moe]([m5C])}$$$$ (last 3' nucleoside missing)” reads 0 score 0-7; that for “RNA1{[moe](T)[sp].[moe](G)p.[moe](G)p.[moe](T)p.[moe](A)[sp].d(G)[sp].d(T)[sp].d(T)[sp].d(T)[sp].d(T)[sp].d(T)[sp].d([m5C])[sp].d(A)[sp].d(A)[sp].d(A)[sp].[moe](T)p.[moe]([m5C])p.[moe](A)[sp].[moe](A)}$$$$ (last 3' nucleoside missing)”, 0 score 0-7; that for “RNA1{[moe](T)[sp].[moe](G)p.[moe](T)p.[moe](G)p.[moe]([m5C])[sp].d(T)[sp].d(T)[sp].d(T)[sp].d(T)[sp].d([m5C])[sp].d([m5C])[sp].d(T)[sp].d(T)[sp].d(T)[sp].d([m5C])[sp].[moe](A)p.[moe](G)p.[moe](A)[sp].[moe](T)}$$$$ (last 3' nucleoside missing)”, 0.75 score 0-7.
The result for “RNA1{[moe](A)[sp].[moe]([m5C])p.[moe](T)p.d([m5C])[sp].d(T)[sp].d(A)[sp].d(T)[sp].d(G)[sp].d(T)[sp].d(T)[sp].d(T)[sp].d(T)[sp].d([m5C])[sp].[moe]([m5C])p.[moe](A)p.[moe](G)p.[moe](T)p.[moe](G)[sp].[moe]([m5C])}$$$$ (last 3' nucleoside missing)” reads 1.5 score 0-7; that for “RNA1{[moe]([m5C])[sp].[moe](T)p.[moe](A)p.[moe](T)p.[moe](G)[sp].d(T)[sp].d(T)[sp].d(T)[sp].d(T)[sp].d([m5C])[sp].d([m5C])[sp].d(A)[sp].d(G)[sp].d(T)[sp].d(G)[sp].[moe]([m5C])p.[moe]([m5C])p.[moe]([m5C])[sp].[moe](A)}$$$$ (last 3' nucleoside missing)”, 3 score 0-7.
Consider “RNA1{[moe](G)[sp].[moe]([m5C])p.[moe](T)p.[moe](T)p.[moe](A)[sp].d(T)[sp].d(T)[sp].d(A)[sp].d(T)[sp].d(T)[sp].d([m5C])[sp].d(A)[sp].d(T)[sp].d(G)[sp].d(T)[sp].[moe](T)p.[moe]([m5C])p.[moe](T)[sp].[moe]([m5C])}$$$$ (last 3' nucleoside missing)”, for which the 3 h FOB score was 3.5 score 0-7.
Turning to “RNA1{[moe](T)[sp].[moe]([m5C])p.[moe](T)p.[moe](G)p.[moe](A)[sp].d(G)[sp].d(A)[sp].d(T)[sp].d(T)[sp].d(T)[sp].d(G)[sp].d(T)[sp].d(T)[sp].d(T)[sp].d(T)[sp].[moe](A)p.[moe](G)p.[moe]([m5C])[sp].[moe]([m5C])}$$$$ (last 3' nucleoside missing)”, the 3 h FOB score came to 3 score 0-7.
The result for “RNA1{[moe](G)[sp].[moe](T)p.[moe]([m5C])p.[moe](A)p.[moe](T)p.d(A)[sp].d(A)[sp].d(T)[sp].d(T)[sp].d(T)[sp].d(T)[sp].d([m5C])[sp].d(T)[sp].d(T)[sp].[moe](A)[sp].[moe](G)p.[moe]([m5C])p.[moe](T)}$$$$ (last 3' nucleoside missing)” reads 0 score 0-7.
As to “RNA1{[moe](A)[sp].[moe](G)p.[moe](T)p.[moe](T)p.[moe]([m5C])[sp].d(T)[sp].d(T)[sp].d(T)[sp].d(T)[sp].d([m5C])[sp].d(T)[sp].d(T)[sp].d(T)[sp].d(G)[sp].d([m5C])[sp].[moe](A)p.[moe]([m5C])p.[moe](A)[sp].[moe]([m5C])}$$$$ (last 3' nucleoside missing)”, the 3 h FOB score worked out at 5.25 score 0-7.
In turn, “RNA1{[moe](G)[sp].[moe]([m5C])p.[moe](A)p.[moe]([m5C])p.[moe](A)p.d([m5C])[sp].d(T)[sp].d(G)[sp].d(A)[sp].d([m5C])[sp].d([m5C])[sp].d(A)[sp].d(T)[sp].d(T)[sp].[moe](T)[sp].[moe](T)p.[moe](T)p.[moe](T)}$$$$ (last 3' nucleoside missing)” returned a 3 h FOB score of 0 score 0-7.
As for “RNA1{[moe](A)[sp].[moe]([m5C])p.[moe](T)p.[moe]([m5C])p.[moe](T)[sp].d(A)[sp].d(T)[sp].d(G)[sp].d(T)[sp].d(T)[sp].d(T)[sp].d(T)[sp].d([m5C])[sp].[moe]([m5C])p.[moe](A)p.[moe](G)[sp].[moe](T)}$$$$ (last 3' nucleoside missing)”, the figure is 4.5 score 0-7; as for “RNA1{[moe](T)[sp].[moe](A)p.[moe](T)p.[moe](G)p.[moe](T)p.d(T)[sp].d(T)[sp].d(T)[sp].d([m5C])[sp].d([m5C])[sp].d(A)[sp].d(G)[sp].d(T)[sp].d(G)[sp].[moe]([m5C])p.[moe]([m5C])p.[moe]([m5C])[sp].[moe](A)}$$$$ (last 3' nucleoside missing)”, 5.25 score 0-7; as for “RNA1{[moe](T)[sp].[moe](G)p.[moe]([m5C])p.[moe]([m5C])p.[moe](A)[sp].d([m5C])[sp].d(A)[sp].d(T)[sp].d(A)[sp].d(T)[sp].d(A)[sp].d(G)[sp].d(G)[sp].d(G)[sp].d(T)[sp].[moe]([m5C])p.[moe]([m5C])p.[moe](T)[sp].[moe](T)}$$$$ (last 3' nucleoside missing)”, 3 score 0-7.
Take “RNA1{[moe](A)[sp].[moe](A)p.[moe](G)p.[moe]([m5C])p.[moe]([m5C])[sp].d(T)[sp].d(T)[sp].d(T)[sp].d([m5C])[sp].d(A)[sp].d(T)[sp].d(A)[sp].d(T)[sp].d(A)[sp].d(T)[sp].[moe](G)p.[moe](T)p.[moe](T)[sp].[moe](A)}$$$$ (last 3' nucleoside missing)”: the 3 h FOB score is 0 score 0-7.
